Test results as given in PubChem BioAssay (NCI).
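Interpolation was linear, between the two tested concentrations surrounding the appropriate level; five concentrations were tested over 48 hours in 96-well plates. At the TGI there is no net growth.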 Where a SMILES comes first, the peptide text is derived from it. The star is where a group is joined. OBn = c1ccc(CO*)cc1

Tests used:
Test in all cases: growth of human tumour cells (NCI), 48 h
MOLT-4 leukemia = system: MOLT-4 leukemia
MALME-3M melanoma = system: MALME-3M melanoma
SK-MEL-28 melanoma = system: SK-MEL-28 melanoma
OVCAR-8 ovarian = system: OVCAR-8 ovarian
MDA-MB-231 breast = system: MDA-MB-231 breast
NCI-H522 lung = system: NCI-H522 lung
UO-31 renal = system: UO-31 renal
HCT-116 colon = system: HCT-116 colon
SW-620 colon = system: SW-620 colon
NCI/ADR-RES ovarian = system: NCI/ADR-RES ovarian
EKVX NSCLC = system: EKVX NSCLC
RXF 393 renal = system: RXF 393 renal
U251 CNS = system: U251 CNS
SNB-75 CNS = system: SNB-75 CNS
UACC-62 melanoma = system: UACC-62 melanoma
HOP-92 NSCLC = system: HOP-92 NSCLC
OVCAR-4 ovarian = system: OVCAR-4 ovarian
SK-MEL-2 melanoma = system: SK-MEL-2 melanoma
HS 578T breast = system: HS 578T breast
MCF7 breast = system: MCF7 breast
HL-60(TB) leukemia = system: HL-60(TB) leukemia
SF-539 CNS = system: SF-539 CNS
NCI-H460 lung = system: NCI-H460 lung
MDA-N = system: MDA-N
MDA-MB-435 = system: MDA-MB-435
UACC-257 melanoma = system: UACC-257 melanoma
NCI-H226 lung = system: NCI-H226 lung
A498 renal = system: A498 renal
IGROV1 ovarian = system: IGROV1 ovarian
OVCAR-3 ovarian = system: OVCAR-3 ovarian
HCT-15 colon = system: HCT-15 colon
TK-10 renal = system: TK-10 renal
KM12 colon = system: KM12 colon
SF-268 CNS = system: SF-268 CNS
A549 NSCLC = system: A549 NSCLC
RPMI-8226 leukemia = system: RPMI-8226 leukemia
NCI-H23 lung = system: NCI-H23 lung
SN12C renal = system: SN12C renal
T-47D breast = system: T-47D breast
CCRF-CEM leukemia = system: CCRF-CEM leukemia
SF-295 CNS = system: SF-295 CNS
DU-145 prostate = system: DU-145 prostate
K-562 leukemia = system: K-562 leukemia
PC-3 prostate = system: PC-3 prostate
SK-MEL-5 melanoma = system: SK-MEL-5 melanoma
SK-OV-3 ovarian = system: SK-OV-3 ovarian
OVCAR-5 ovarian = system: OVCAR-5 ovarian
BT-549 breast = system: BT-549 breast
HOP-62 NSCLC = system: HOP-62 NSCLC
HT29 colon = system: HT29 colon
SNB-19 CNS = system: SNB-19 CNS
M14 melanoma = system: M14 melanoma
786-0 renal = system: 786-0 renal
ACHN renal = system: ACHN renal
LOX IMVI melanoma = system: LOX IMVI melanoma
CAKI-1 renal = system: CAKI-1 renal
COLO 205 colon = system: COLO 205 colon
SR leukemia = system: SR leukemia
HCC-2998 colon = system: HCC-2998 colon

Measured: TGI

CC1(C)N=C(N)N=C(N)N1c1cccc(OCc2cccc([N+](=O)[O-])c2)c1
48.2 µM: UACC-257 melanoma
> 73.9 µM: OVCAR-3 ovarian
98.9 µM: U251 CNS
58.2 µM: HL-60(TB) leukemia
> 81.8 µM: TK-10 renal
51.6 µM: NCI-H460 lung
> 100 µM: MOLT-4 leukemia | MALME-3M melanoma | SK-MEL-28 melanoma | OVCAR-8 ovarian | MDA-MB-231 breast | NCI-H522 lung | UO-31 renal | HCT-116 colon | SW-620 colon | NCI/ADR-RES ovarian | EKVX NSCLC | RXF 393 renal | SNB-75 CNS | UACC-62 melanoma | HOP-92 NSCLC | OVCAR-4 ovarian | SK-MEL-2 melanoma | HS 578T breast | MCF7 breast | MDA-N | MDA-MB-435 | NCI-H226 lung | A498 renal | IGROV1 ovarian | HCT-15 colon | KM12 colon | SF-268 CNS | A549 NSCLC | RPMI-8226 leukemia | NCI-H23 lung | SN12C renal | CCRF-CEM leukemia | SF-295 CNS | DU-145 prostate | K-562 leukemia | SK-OV-3 ovarian | OVCAR-5 ovarian | BT-549 breast | HOP-62 NSCLC | HT29 colon | SNB-19 CNS | M14 melanoma | 786-0 renal | ACHN renal | LOX IMVI melanoma | CAKI-1 renal | COLO 205 colon
> 88.7 µM: SK-MEL-5 melanoma
> 82.7 µM: PC-3 prostate
> 89.1 µM: T-47D breast
> 79.4 µM: SF-539 CNS

NC(CCC(=O)OCc1ccccc1)C(=O)NC(CCC(=O)OCc1ccccc1)C(=O)O (stereo not given) (H-Glu(OBn)-Glu(OBn)-OH; configuration not given here)
> 100 µM: MOLT-4 leukemia | MALME-3M melanoma | SK-MEL-28 melanoma | OVCAR-8 ovarian | MDA-MB-231 breast | NCI-H522 lung | UO-31 renal | HCT-116 colon | SW-620 colon | NCI/ADR-RES ovarian | EKVX NSCLC | RXF 393 renal | U251 CNS | SNB-75 CNS | UACC-62 melanoma | HOP-92 NSCLC | OVCAR-4 ovarian | HS 578T breast | MCF7 breast | HL-60(TB) leukemia | NCI-H460 lung | MDA-N | MDA-MB-435 | NCI-H226 lung | IGROV1 ovarian | OVCAR-3 ovarian | HCT-15 colon | TK-10 renal | KM12 colon | SF-268 CNS | A549 NSCLC | RPMI-8226 leukemia | NCI-H23 lung | SN12C renal | SR leukemia | T-47D breast | CCRF-CEM leukemia | SF-295 CNS | DU-145 prostate | K-562 leukemia | PC-3 prostate | SK-MEL-5 melanoma | SK-OV-3 ovarian | OVCAR-5 ovarian | BT-549 breast | HOP-62 NSCLC | HCC-2998 colon | HT29 colon | SNB-19 CNS | M14 melanoma | 786-0 renal | ACHN renal | LOX IMVI melanoma | CAKI-1 renal | COLO 205 colon

CCOC(=O)c1c(-c2ccccc2)[nH]c2ccc(Cl)cc2c1=O
62 µM: T-47D breast
> 100 µM: MOLT-4 leukemia | MALME-3M melanoma | SK-MEL-28 melanoma | OVCAR-8 ovarian | MDA-MB-231 breast | HCT-116 colon | SW-620 colon | NCI/ADR-RES ovarian | EKVX NSCLC | RXF 393 renal | U251 CNS | SNB-75 CNS | UACC-62 melanoma | SK-MEL-2 melanoma | HS 578T breast | MCF7 breast | HL-60(TB) leukemia | SF-539 CNS | NCI-H460 lung | MDA-N | MDA-MB-435 | UACC-257 melanoma | NCI-H226 lung | IGROV1 ovarian | HCT-15 colon | TK-10 renal | KM12 colon | SF-268 CNS | A549 NSCLC | RPMI-8226 leukemia | NCI-H23 lung | SN12C renal | SR leukemia | CCRF-CEM leukemia | SF-295 CNS | DU-145 prostate | K-562 leukemia | PC-3 prostate | SK-MEL-5 melanoma | SK-OV-3 ovarian | OVCAR-5 ovarian | BT-549 breast | HOP-62 NSCLC | HCC-2998 colon | HT29 colon | SNB-19 CNS | M14 melanoma | 786-0 renal | LOX IMVI melanoma | CAKI-1 renal | COLO 205 colon
44.8 µM: OVCAR-4 ovarian
70.8 µM: UO-31 renal
73.6 µM: HOP-92 NSCLC
38.9 µM: OVCAR-3 ovarian
60.8 µM: NCI-H522 lung
93.2 µM: ACHN renal

CCOC(=O)c1c(NC(=O)c2ccc(OC)cc2)sc2c1CCCC2
> 100 µM: MOLT-4 leukemia | SK-MEL-28 melanoma | OVCAR-8 ovarian | MDA-MB-231 breast | UO-31 renal | HCT-116 colon | SW-620 colon | NCI/ADR-RES ovarian | EKVX NSCLC | RXF 393 renal | U251 CNS | UACC-62 melanoma | SK-MEL-2 melanoma | HS 578T breast | MCF7 breast | HL-60(TB) leukemia | SF-539 CNS | NCI-H460 lung | MDA-N | MDA-MB-435 | UACC-257 melanoma | NCI-H226 lung | A498 renal | IGROV1 ovarian | OVCAR-3 ovarian | TK-10 renal | KM12 colon | SF-268 CNS | A549 NSCLC | RPMI-8226 leukemia | NCI-H23 lung | SN12C renal | SR leukemia | T-47D breast | CCRF-CEM leukemia | SF-295 CNS | DU-145 prostate | K-562 leukemia | PC-3 prostate | SK-MEL-5 melanoma | OVCAR-5 ovarian | BT-549 breast | HOP-62 NSCLC | HT29 colon | SNB-19 CNS | M14 melanoma | 786-0 renal | ACHN renal | CAKI-1 renal | COLO 205 colon
